Assay results as given in article PMC6278539, “Selective Inhibition of Human AKR1B10 by n-Humulone, Adhumulone and Cohumulone Isolated from Humulus lupulus Extract” (Molecules, 2018).

Columns and labels:
[1] = target: T1, AKR1B1 (Homo sapiens, UniProt P15121); experiment: AKR1B1 inhibition, DL-glyceraldehyde reduction (NADPH decrease at 340 nm); type: biochemical; conditions: AKR1B1, Glyceraldehyde [50 µM]
T1 construct: 6xHis; made in house; host or cells: E. coli BL21 (DE3)
Description: (§1) The carbonyl-reducing enzymes AKR1A1, AKR1B1, AKR1B10 were prepared in an Escherichia coli expression system according to previously published methods: plasmids of AKR1A1 and AKR1B1 were friendly gifts from Prof. Dr. Vladimir Wsol and Dr. Nina Kassner; information about production and purification of AKR1B10 [19] has been published before (sequences of all obtained plasmids containing the specific inserts were verified by sequencing (MWG Eurofins)). The plasmids were then transformed in E. coli BL21 (DE3) cells. For overexpression of 6× His-tagged enzymes, a 400 mL culture (containing the appropriate antibiotic; plasmid dependent) was grown to optical density of 0.6 at 600 nm at 37 °C. Expression was induced by adding isopropyl-1-thio-galactopyranoside to the culture medium (final concentration of 1 mM). After 3 h, cells were harvested by centrifugation (6000× g, 15 min) and resuspended in 20 mL PBS-I buffer (20 mM Na2H2PO4, 500 mM NaCl, 10 mM imidazole, 10% v/v glycerol, pH 7.4). Cell disruption was performed by ultrasonication with cooling on ice to avoid heating. […] Purification progress was monitored by SDS-PAGE of the obtained fractions (not shown). Enzyme concentrations were determined using a Qubit 2.0 fluorometric quantitation system (Life Technologies, Carlsbad, CA, USA) according to the manufacturer’s instructions.
(§2) Catalytic properties were determined by measuring the decrease in absorbance at 340 nm (Cary 100 scan photometer, Varian, CA, USA). […]
(§3) For inhibition studies, stock solutions of inhibitors were prepared in H2O (iso-α-acid mixture) and DMSO (α-acid mixture and compounds 1–3 purified from the same mixture). […] The percentage of inhibition was calculated considering the activity in the absence of inhibitor to be 100%. […]
For IC50 determination, experimental data were normalised and fitted to a sigmoidal curve as implemented in GraphPad Prism6 (GraphPad Software Inc., La Jolla, CA, USA). Whenever tight-binding inhibition was observed, the inhibition constant Ki was determined by fitting inhibition data to the Morrison equation [43]. […]

[2] = target: T2, AKR1B10 (Homo sapiens, UniProt O60218); experiment: AKR1B10-mediated farnesal reduction inhibition; type: biochemical; conditions: for IC50 / Ki: AKR1B10, Farnesal [5 µM], mean ± SD; for Mode of inhibition: AKR1B10, farnesal reduction
T2 construct: 6xHis; made in house; host or cells: E. coli BL21 (DE3)
T2 sequence (O60218 whole entry): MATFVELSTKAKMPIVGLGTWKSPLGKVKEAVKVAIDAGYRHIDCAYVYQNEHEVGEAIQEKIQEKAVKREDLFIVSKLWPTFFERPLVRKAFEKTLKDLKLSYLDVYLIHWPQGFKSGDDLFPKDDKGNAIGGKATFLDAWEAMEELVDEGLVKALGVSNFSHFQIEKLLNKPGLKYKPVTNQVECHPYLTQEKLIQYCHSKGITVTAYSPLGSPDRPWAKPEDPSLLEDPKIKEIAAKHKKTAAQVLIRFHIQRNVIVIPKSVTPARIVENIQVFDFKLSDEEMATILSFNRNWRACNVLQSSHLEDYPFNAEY
Description: (§4) The carbonyl-reducing enzymes AKR1A1, AKR1B1, AKR1B10 were prepared in an Escherichia coli expression system according to previously published methods: plasmids of AKR1A1 and AKR1B1 were friendly gifts from Prof. Dr. Vladimir Wsol and Dr. Nina Kassner; information about production and purification of AKR1B10 [19] has been published before (sequences of all obtained plasmids containing the specific inserts were verified by sequencing (MWG Eurofins)). The plasmids were then transformed in E. coli BL21 (DE3) cells. For overexpression of 6× His-tagged enzymes, a 400 mL culture (containing the appropriate antibiotic; plasmid dependent) was grown to optical density of 0.6 at 600 nm at 37 °C. Expression was induced by adding isopropyl-1-thio-galactopyranoside to the culture medium (final concentration of 1 mM). After 3 h, cells were harvested by centrifugation (6000× g, 15 min) and resuspended in 20 mL PBS-I buffer (20 mM Na2H2PO4, 500 mM NaCl, 10 mM imidazole, 10% v/v glycerol, pH 7.4). Cell disruption was performed by ultrasonication with cooling on ice to avoid heating. The sample was subsequently centrifuged at 100,000× g at 4 °C for 1 h. The obtained supernatants containing the respective enzymes were purified using Ni-affinity chromatography (ÄKTA-Purifier; Amersham Pharmacia, Uppsala, Sweden) using PBS-II buffer (20 mM Na2H2PO4, 500 mM NaCl, 500 mM imidazole, 10% v/v glycerol, pH 7.4). Purification progress was monitored by SDS-PAGE of the obtained fractions (not shown). Enzyme concentrations were determined using a Qubit 2.0 fluorometric quantitation system (Life Technologies, Carlsbad, CA, USA) according to the manufacturer’s instructions.
(§5) Catalytic properties were determined by measuring the decrease in absorbance at 340 nm (Cary 100 scan photometer, Varian, CA, USA). A reaction mixture without inhibitor consisted of different concentrations of DL-glyceraldehyde or farnesal, 200 μM NADPH, 0.1 M NaH2PO4 buffer (pH 7.4) and an appropriate amount of enzyme in a total assay volume of 0.8 mL. Final enzyme concentrations in the assay ranged from 222 nM (AKR1A1) to 899 nM (AKR1B10). KM values were obtained by fitting the kinetic data (mean ± SD from at least three experiments) to the Michaelis‒Menten model, as implemented in GraphPad Prism6 (GraphPad Software Inc., La Jolla, CA, USA).
(§6) For inhibition studies, stock solutions of inhibitors were prepared in H2O (iso-α-acid mixture) and DMSO (α-acid mixture and compounds 1–3 purified from the same mixture). […] When collecting data for dose–response curves initial velocities of DL-glyceraldehyde or farnesal reduction (substrate concentration at KM) in the presence of inhibitors were assayed as described above. The percentage of inhibition was calculated considering the activity in the absence of inhibitor to be 100%.
(§7) For IC50 determination, experimental data were normalised and fitted to a sigmoidal curve as implemented in GraphPad Prism6 (GraphPad Software Inc., La Jolla, CA, USA). Whenever tight-binding inhibition was observed, the inhibition constant Ki was determined by fitting inhibition data to the Morrison equation [43]. In order to verify the inhibitory potency, farnesal as an enzyme-specific physiological substrate for AKR1B10 (farnesal; KM = 5 µM) was used to determine inhibition parameters. Enzyme inhibition parameters were assayed as described above. The inhibition mechanism of each compound for AKR1B10 was analysed by plotting IC50-values at different substrate concentrations (at least five inhibitor and substrate concentrations). All data obtained were plotted and analysed using GraphPad Prism6 (GraphPad Software Inc., La Jolla, CA, USA).

[3] = target: T2, AKR1B10; experiment: AKR1B10 inhibition, DL-glyceraldehyde reduction (NADPH decrease at 340 nm); type: biochemical; conditions: for IC50 / Ki: AKR1B10, Glyceraldehyde [4.0 mM], mean ± SD; for Ki: read-out: Ki (Morrison); for Ratio AKR1A1/AKR1B10 / Ratio AKR1B1/AKR1B10: IC50-ratio, glyceraldehyde as substrate
Description: as §4, §5, §6
Initially, the half maximal inhibitory concentrations (IC50 values) were determined for each inhibitor in presence of each enzyme, using the shared substrate DL-glyceraldehyde (set to their specific KM; 3.6 mM, 50 μM and 4 mM for AKR1A1, AKR1B1 and AKR1B10, respectively) to assess specificity amongst the structurally similar members of the AKR-superfamily.
as §7, with “All data obtained were plotted and analysed using GraphPad Prism6 (GraphPad Software Inc., La Jolla, CA, USA).” left out

[4] = target: T3, AKR1A1 (Homo sapiens, UniProt P14550); experiment: AKR1A1 inhibition, DL-glyceraldehyde reduction (NADPH decrease at 340 nm); type: biochemical; conditions: AKR1A1, Glyceraldehyde [3.6 mM]
T3 construct: 6xHis; made in house; host or cells: E. coli BL21 (DE3)
T3 sequence (P14550 1-325): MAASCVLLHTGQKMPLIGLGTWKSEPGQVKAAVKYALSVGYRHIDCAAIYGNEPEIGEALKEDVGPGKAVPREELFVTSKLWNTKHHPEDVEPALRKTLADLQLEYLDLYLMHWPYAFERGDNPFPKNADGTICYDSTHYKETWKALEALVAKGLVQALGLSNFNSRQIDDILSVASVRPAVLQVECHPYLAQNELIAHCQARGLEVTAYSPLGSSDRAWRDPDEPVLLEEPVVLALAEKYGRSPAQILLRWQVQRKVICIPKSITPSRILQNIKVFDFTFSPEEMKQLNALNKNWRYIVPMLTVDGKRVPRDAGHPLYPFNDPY
Description: as §1, with “°C.” for “°C. Expression was induced by adding isopropyl-1-thio-galactopyranoside to the culture medium (final concentration of 1 mM). After 3 h, cells were harvested by centrifugation (6000× g, 15 min) and resuspended in 20 mL PBS-I buffer (20 mM Na2H2PO4, 500 mM NaCl, 10 mM imidazole, 10% v/v glycerol, pH 7.4). Cell disruption was performed by ultrasonication with cooling on ice to avoid heating.”
as §2, §3

[5] = tested on: cyclooxygenase-1; parameters: method as in PMID 10631313; conditions: cited from earlier work
[6] = target: cyclooxygenase-2; parameters: method as in PMID 10631313; conditions: cited from earlier work
[7] = target: AKR1B10; parameters: method as in PMID 27665999; conditions: cited from earlier work
[8] = tested on: AKR1B10; parameters: method as in PMID 23123477; conditions: cited from earlier work

SMILES	IC50 [1] [µM]	IC50 [2] [µM]	Ki [2] [µM]	Mode of inhibition [2]	IC50 [3] [µM]	Ki [3] [µM]	Ratio AKR1A1/AKR1B10 [3]	Ratio AKR1B1/AKR1B10 [3]	IC50 [4] [µM]	inhibition of cyclooxygenase-1 [5]	IC50 [6] [µM]	Ki [7] [µM]	IC50 [8] [µM]
CC(C)=CCC1=C(O)C(O)(CC=C(C)C)C(=O)C(C(=O)C(C)C)=C1O (stereo in doubt) [Compound 2, cohumulone]	> 125	29.8 ± 1.72	16.5 ± 1.74	non-competitive	1.35 ± 0.07	0.7 ± 0.09	>74	>93	> 100	–	–	–	–
CCC(C)C(=O)C1=C(O)C(CC=C(C)C)=C(O)[C@](O)(CC=C(C)C)C1=O (stereo partly drawn) [Compound 1, adhumulone]	> 125	29.3 ± 1.53	16.8 ± 1.33	competitive	5.41 ± 0.42	3.27 ± 0.52	≥19	>23	–	–	–	–	–
CC(C)=CCC1C(=O)C(C(=O)CC(C)C)=C(O)C(O)(CC=C(C)C)C1=O (stereo not drawn) [Compound 3, n-humulone]	> 125	7.78 ± 0.43	3.94 ± 0.33	non-competitive	1.94 ± 0.1	0.98 ± 0.12	>52	>64	> 100	not inhibited at concentrations below 10 µM	1.6	–	–
CCCCC/C=C\C/C=C\C/C=C\C/C=C\CCCC(=O)O [arachidonic acid]	–	–	–	–	–	–	–	–	–	–	–	0.26	–
CC(C)=CCc1c(O)cc2oc3cc(O)c(O)c(CC=C(C)C)c3c(=O)c2c1O [γ-mangostin]	–	–	–	–	–	–	–	–	–	–	–	–	0.018
